Data reported in PubChem BioAssay (NCI).
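Interpolation was linear, between the two tested concentrations surrounding the appropriate level; five concentrations were tested over 48 hours in 96-well plates. TGI denotes the concentration required for complete inhibition of growth.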

Columns and labels:
Assay in all cases: NCI tumour cell line growth inhibition, 48 h
ACHN renal = test system: ACHN renal
HCT-15 colon = test system: HCT-15 colon
IGROV1 ovarian = test system: IGROV1 ovarian
NCI-H23 lung = test system: NCI-H23 lung
OVCAR-3 ovarian = test system: OVCAR-3 ovarian
OVCAR-4 ovarian = test system: OVCAR-4 ovarian
SF-295 CNS = test system: SF-295 CNS
SN12C renal = test system: SN12C renal
UACC-257 melanoma = test system: UACC-257 melanoma
UACC-62 melanoma = test system: UACC-62 melanoma
BT-549 breast = test system: BT-549 breast
DU-145 prostate = test system: DU-145 prostate
HOP-92 NSCLC = test system: HOP-92 NSCLC

Row | SMILES | TGI (ACHN renal) [µM] | TGI (HCT-15 colon) [µM] | TGI (IGROV1 ovarian) [µM] | TGI (NCI-H23 lung) [µM] | TGI (OVCAR-3 ovarian) [µM] | TGI (OVCAR-4 ovarian) [µM] | TGI (SF-295 CNS) [µM] | TGI (SN12C renal) [µM] | TGI (UACC-257 melanoma) [µM] | TGI (UACC-62 melanoma) [µM] | TGI (BT-549 breast) [µM] | TGI (DU-145 prostate) [µM] | TGI (HOP-92 NSCLC) [µM]
1 | CC(C)(C)c1cc(N=NC(=S)NCc2ccccc2)cc(C(C)(C)C)c1O | > 100 | > 100 | > 100 | > 100 | > 100 | > 100 | > 100 | > 100 | > 100 | > 100 |  |  | 
2 | CCOC(=O)C(NC(=O)NCc1ccc(F)cc1)C(F)(F)F (stereo not drawn) | > 100 | > 100 | > 100 | > 100 |  |  |  | > 100 | > 100 |  | > 100 |  | 
3 | COc1cc(/C=C2\CCC(C)c3c2nc(N)c(C#N)c3-c2cc(OC)c(OC)c(OC)c2)cc(OC)c1OC (stereo not drawn) | > 100 | > 100 | > 100 |  |  | 78.1 |  | > 100 | > 100 | > 100 |  | > 100 | > 100
4 | c1ccc2c(NCCCCCCCCNc3cccc4ccccc34)cccc2c1 | 80.6 | 84.7 | > 100 | 65 | > 100 | 67.3 | > 100 | > 100 | 51.7 | 45.9 |  |  | 35.7
5 | COc1ccc2c(c1)CC1NC2Cc2ccccc21 (stereo not drawn) | > 100 | > 100 | > 100 | > 100 | > 100 | > 100 | > 100 |  | > 100 | > 100 |  |  | 
6 | CN(C)Cc1cc(C(=O)/C=C/c2c(Cl)cccc2Cl)cc(CN(C)C)c1O | 12.4 | 24.2 | 21.8 | 34.2 | 23.6 | 24.8 | 23.1 | 21 | 16.9 |  |  | 20.8 | 9.06
7 | O=C(/C=C(\O)C(=O)O)/C=C(\O)c1ccccc1Cl | > 100 | > 100 | > 100 | > 100 | > 100 | > 100 | > 100 | > 100 | > 100 | > 100 |  |  | > 100
8 | CC1C(c2ccccc2)=CCON1c1ccccc1 (stereo not drawn) | > 100 | > 100 | > 100 | > 100 | > 100 | > 100 | > 100 | > 100 | > 100 | > 100 |  |  | 
9 | CC1=C(N(C)C)C(=O)c2nc3n(c2C1=O)CCC3OC(N)=O (stereo not drawn) | 30.4 | 28.9 | 30.6 | 28.5 | 30.6 | 34.7 | 28.5 | 28.8 | 27.6 | 18 |  |  | 28.2
10 | CN=C1Nc2ccccc2C(=S)N2CSC[C@@H]12 | > 100 | > 100 |  | > 100 | > 100 | > 100 | > 100 | > 100 |  | > 100 |  | > 100 | > 100
11 | NC(=S)Nc1nnc(-c2ccc(-c3nnc(NC(N)=S)o3)cc2)o1 | > 100 | > 100 | > 100 | > 100 | > 100 | > 100 | > 100 | > 100 | > 100 | > 100 |  |  | > 100
12 | CC[N+](CC)(CC)Cc1cn(S(=O)(=O)c2ccccc2)c2ccccc12 | > 100 | > 100 | > 100 | > 100 | > 100 | > 100 | > 100 |  | > 100 | > 100 |  |  | > 100
13 | [N-]=[N+]=Nc1cc(=O)n(-c2ccccc2)c(=O)n1-c1ccccc1 | > 100 |  | > 100 | > 100 | > 100 | > 100 | > 100 | > 100 | > 100 | > 100 | > 100 |  | > 100
14 | BrC12C3C4C5C(C(C43)C13OCCO3)C52 (stereo not drawn) | > 100 |  | > 100 | > 100 | > 100 |  | > 100 |  | > 100 |  |  |  | > 100
15 | CCOC(=O)C1=C(C)C2C3C(=O)NC(=O)C3C1(C)C1C(=O)NC(=O)C21 (stereo not drawn) | > 100 | > 100 | > 100 | > 100 | > 100 | > 100 | > 100 | > 100 | > 100 | > 100 |  |  | > 100
16 | Clc1ccc2c(Cl)ncnc2c1I |  | > 100 | > 100 | > 100 | > 100 | > 100 | > 100 | > 100 | > 100 | > 100 |  |  | 
